Measurements from ChEMBL document CHEMBL5705899 (Biochem J, 2014).
Activity calls are given as the source filed them. The rule behind the calls is not given here.

Experiments:
[1] = target: Mitogen-activated protein kinase kinase kinase 14 (Homo sapiens) (UniProt Q99558); experiment: Inhibition of human NIK at 1 uM using RBER-CHKtide as substrate in presence of 33P-ATP by ProQinase assay
[2] = target: Calcium/calmodulin-dependent protein kinase type II subunit alpha (Homo sapiens) (UniProt Q9UQM7); experiment: Inhibition of human CAMK2A at 1 uM using RBER-CHKtide as substrate in presence of 33P-ATP by ProQinase assay
[3] = tested on: TGF-beta receptor type-1 (Homo sapiens), P36897 [T204D]; experiment: Inhibition of recombinant human N-terminal GST-tagged TGFBR1 T204D mutant (200 to 501 residues) expressed in baculovirus infected Sf21 cells assessed as remaining activity at 1 uM using crosstide peptide as substrate incubated for 30 mins in presence of [gamma-33P]ATP by filter binding method relative to control
[4] = target: Diacylglycerol kinase eta (Homo sapiens) (UniProt Q86XP1); experiment: Inhibition of DGKeta (unknown origin) at 1 uM
[5] = target: Activin receptor type-2B (Homo sapiens) (UniProt Q13705); experiment: Inhibition of human ACVR2B at 1 uM using RB-CTF as substrate in presence of 33P-ATP by ProQinase assay
[6] = target: Death-associated protein kinase 3 (Homo sapiens) (UniProt O43293); experiment: Inhibition of human DAPK3 at 1 uM using RBER-GSK3 as substrate in presence of 33P-ATP by ProQinase assay
[7] = target: Serine/threonine-protein kinase PAK 5 (Homo sapiens) (UniProt Q9P286); experiment: Inhibition of recombinant human N-terminal GST-tagged PAK5 (2 to 719 residues) expressed in Escherichia coli assessed as remaining activity at 1 uM using RRRLSFAEPG as substrate incubated for 30 mins in presence of [gamma-33P]ATP by filter binding method relative to control
[8] = target: Serine/threonine-protein kinase WNK3 (Homo sapiens) (UniProt Q9BYP7); experiment: Inhibition of human WNK3 at 1 uM using RB-S6P as substrate in presence of 33P-ATP by ProQinase assay
[9] = target: TGF-beta receptor type-2 (Homo sapiens) (UniProt P37173); experiment: Inhibition of human TGFBR2 at 1 uM using RB-S6P as substrate in presence of 33P-ATP by ProQinase assay
[10] = target: 5'-AMP-activated protein kinase catalytic subunit alpha-1 (Homo sapiens) (UniProt Q13131); experiment: Inhibition of human AMPKalpha1 (1 to 550 residues) at 1 uM using RBER-CHKtide as substrate in presence of 33P-ATP by ProQinase assay
[11] = target: Casein kinase I isoform gamma-1 (Homo sapiens) (UniProt Q9HCP0); experiment: Inhibition of human CK1gamma1 at 1 uM using casein as substrate in presence of 33P-ATP by ProQinase assay
[12] = target: Aurora kinase B (Homo sapiens) (UniProt Q96GD4); experiment: Inhibition of recombinant human N-terminal His6-tagged Aurora B (1 to 344 residues) expressed in Escherichia coli assessed as remaining activity at 1 uM using LRRLSLGLRRLSLGLRRLSLGLRRLSLG as substrate incubated for 30 mins in presence of [gamma-33P]ATP by filter binding method relative to control
[13] = tested on: RAF proto-oncogene serine/threonine-protein kinase (Homo sapiens), P04049 [Y340D,Y341D]; experiment: Inhibition of human RAF1 Y340D/Y341D double mutant at 1 uM using MEK1-K97M as substrate in presence of 33P-ATP by ProQinase assay
[14] = target: Serine/threonine-protein kinase pim-2 (Homo sapiens) (UniProt Q9P1W9); experiment: Inhibition of recombinant human N-terminal GST-tagged PIM2 (2 to 334 residues) expressed in Escherichia coli assessed as remaining activity at 1 uM using RSRHSSYPAGT as substrate incubated for 30 mins in presence of [gamma-33P]ATP by filter binding method relative to control
[15] = target: Casein kinase I isoform epsilon (Homo sapiens) (UniProt P49674); experiment: Inhibition of human CK1epsilon at 1 uM using casein as substrate in presence of 33P-ATP by ProQinase assay
[16] = target: Fibroblast growth factor receptor 2 (Homo sapiens) (UniProt P21802); experiment: Inhibition of human FGFR2 at 1 uM using polyEY as substrate in presence of 33P-ATP by ProQinase assay
[17] = target: Diacylglycerol kinase alpha (Homo sapiens) (UniProt P23743); experiment: Inhibition of DGKalpha (unknown origin) at 1 uM
[18] = target: Beta-adrenergic receptor kinase 1 (Homo sapiens) (UniProt P25098); experiment: Inhibition of human GRK2 at 1 uM using casein as substrate in presence of 33P-ATP by ProQinase assay
[19] = target: Misshapen-like kinase 1 (Homo sapiens) (UniProt Q8N4C8); experiment: Inhibition of recombinant human N-terminal GST-tagged MINK1 (1 to 320 residues) expressed in baculovirus infected Sf21 cells assessed as remaining activity at 1 uM using MBP as substrate incubated for 30 mins in presence of [gamma-33P]ATP by filter binding method relative to control
Homo sapiens = species: Homo sapiens; experiment: Inhibition of human CDK1/CycA2 at 1 uM using RBER-CHKtide as substrate in presence of 33P-ATP by ProQinase assay
[20] = target: Tyrosine-protein kinase TXK (Homo sapiens) (UniProt P42681); experiment: Inhibition of human TXK at 1 uM using RBER-CHKtide as substrate in presence of 33P-ATP by ProQinase assay
[21] = target: Angiopoietin-1 receptor (Homo sapiens) (UniProt Q02763); experiment: Inhibition of recombinant human N-terminal His6-tagged TIE2 (771 to 1124 residues) expressed in baculovirus infected Sf21 cells assessed as remaining activity at 1 uM using Poly(Glu,Tyr) as substrate incubated for 30 mins in presence of [gamma-33P]ATP by filter binding method relative to control
[22] = target: Tau-tubulin kinase 2 (Homo sapiens) (UniProt Q6IQ55); experiment: Inhibition of recombinant human TTBK2 (1 to 450 residues) expressed in baculovirus infected Sf21 cells assessed as remaining activity at 1 uM using RRKDLHDDEEDEAMSITA as substrate incubated for 30 mins in presence of [gamma-33P]ATP by filter binding method relative to control
[23] = target: Casein kinase II subunit alpha' (Homo sapiens) (UniProt P19784); experiment: Inhibition of human CK2alpha2 at 1 uM using casein as substrate in presence of 33P-ATP by ProQinase assay
[24] = target: Dual specificity protein kinase CLK1 (Homo sapiens) (UniProt P49759); experiment: Inhibition of human CLK1 at 1 uM using autophos as substrate in presence of 33P-ATP by ProQinase assay
[25] = target: Mitogen-activated protein kinase kinase kinase 9 (Homo sapiens) (UniProt P80192); experiment: Inhibition of recombinant human N-terminal GST-tagged MLK1 (132 to 413 residues) expressed in baculovirus infected Sf21 cells assessed as remaining activity at 1 uM using MBP as substrate incubated for 30 mins in presence of [gamma-33P]ATP by filter binding method relative to control
Sequence of Mitogen-activated protein kinase kinase kinase 9 (Homo sapiens) (P80192 whole entry, looked up, the tested form may be a part): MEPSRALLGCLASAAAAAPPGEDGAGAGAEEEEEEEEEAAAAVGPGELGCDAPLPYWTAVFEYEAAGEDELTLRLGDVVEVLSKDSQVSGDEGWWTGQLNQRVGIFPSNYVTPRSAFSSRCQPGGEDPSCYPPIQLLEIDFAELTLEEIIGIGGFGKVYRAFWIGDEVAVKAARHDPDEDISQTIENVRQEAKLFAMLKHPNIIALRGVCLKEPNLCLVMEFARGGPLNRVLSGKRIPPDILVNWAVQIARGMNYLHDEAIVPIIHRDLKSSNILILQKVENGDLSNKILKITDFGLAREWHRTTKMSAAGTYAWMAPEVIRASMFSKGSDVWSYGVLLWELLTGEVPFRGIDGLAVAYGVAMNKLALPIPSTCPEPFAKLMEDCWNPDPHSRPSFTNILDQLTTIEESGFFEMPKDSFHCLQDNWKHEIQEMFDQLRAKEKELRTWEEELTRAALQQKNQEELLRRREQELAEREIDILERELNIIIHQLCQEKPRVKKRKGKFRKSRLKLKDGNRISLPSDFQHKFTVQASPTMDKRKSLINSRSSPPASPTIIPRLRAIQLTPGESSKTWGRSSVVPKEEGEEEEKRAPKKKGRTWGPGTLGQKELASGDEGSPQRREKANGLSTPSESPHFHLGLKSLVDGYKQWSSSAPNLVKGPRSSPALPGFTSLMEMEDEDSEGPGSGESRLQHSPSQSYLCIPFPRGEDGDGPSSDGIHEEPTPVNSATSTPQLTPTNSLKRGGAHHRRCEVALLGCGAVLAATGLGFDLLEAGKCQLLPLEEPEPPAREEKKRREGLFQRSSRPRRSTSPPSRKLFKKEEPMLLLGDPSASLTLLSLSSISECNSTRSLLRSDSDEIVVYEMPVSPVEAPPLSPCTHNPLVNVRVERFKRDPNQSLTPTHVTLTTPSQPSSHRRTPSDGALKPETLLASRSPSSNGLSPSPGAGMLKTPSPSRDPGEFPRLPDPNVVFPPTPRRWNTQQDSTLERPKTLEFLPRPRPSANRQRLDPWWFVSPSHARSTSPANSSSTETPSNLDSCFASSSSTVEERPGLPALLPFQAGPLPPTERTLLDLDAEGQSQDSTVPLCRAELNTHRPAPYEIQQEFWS

Sequence of Serine/threonine-protein kinase pim-2 (Homo sapiens) (Q9P1W9 whole entry, looked up, the tested form may be a part, canonical isoform): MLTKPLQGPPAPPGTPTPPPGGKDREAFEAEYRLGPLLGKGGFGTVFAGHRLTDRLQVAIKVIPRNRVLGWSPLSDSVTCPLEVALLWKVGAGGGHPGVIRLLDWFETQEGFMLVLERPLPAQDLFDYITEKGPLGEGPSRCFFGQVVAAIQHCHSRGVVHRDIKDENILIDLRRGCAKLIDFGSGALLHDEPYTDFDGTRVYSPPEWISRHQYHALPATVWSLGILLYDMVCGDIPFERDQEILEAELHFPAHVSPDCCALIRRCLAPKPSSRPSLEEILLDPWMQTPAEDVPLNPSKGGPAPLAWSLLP
Sequence of Diacylglycerol kinase eta (Homo sapiens) (Q86XP1 whole entry): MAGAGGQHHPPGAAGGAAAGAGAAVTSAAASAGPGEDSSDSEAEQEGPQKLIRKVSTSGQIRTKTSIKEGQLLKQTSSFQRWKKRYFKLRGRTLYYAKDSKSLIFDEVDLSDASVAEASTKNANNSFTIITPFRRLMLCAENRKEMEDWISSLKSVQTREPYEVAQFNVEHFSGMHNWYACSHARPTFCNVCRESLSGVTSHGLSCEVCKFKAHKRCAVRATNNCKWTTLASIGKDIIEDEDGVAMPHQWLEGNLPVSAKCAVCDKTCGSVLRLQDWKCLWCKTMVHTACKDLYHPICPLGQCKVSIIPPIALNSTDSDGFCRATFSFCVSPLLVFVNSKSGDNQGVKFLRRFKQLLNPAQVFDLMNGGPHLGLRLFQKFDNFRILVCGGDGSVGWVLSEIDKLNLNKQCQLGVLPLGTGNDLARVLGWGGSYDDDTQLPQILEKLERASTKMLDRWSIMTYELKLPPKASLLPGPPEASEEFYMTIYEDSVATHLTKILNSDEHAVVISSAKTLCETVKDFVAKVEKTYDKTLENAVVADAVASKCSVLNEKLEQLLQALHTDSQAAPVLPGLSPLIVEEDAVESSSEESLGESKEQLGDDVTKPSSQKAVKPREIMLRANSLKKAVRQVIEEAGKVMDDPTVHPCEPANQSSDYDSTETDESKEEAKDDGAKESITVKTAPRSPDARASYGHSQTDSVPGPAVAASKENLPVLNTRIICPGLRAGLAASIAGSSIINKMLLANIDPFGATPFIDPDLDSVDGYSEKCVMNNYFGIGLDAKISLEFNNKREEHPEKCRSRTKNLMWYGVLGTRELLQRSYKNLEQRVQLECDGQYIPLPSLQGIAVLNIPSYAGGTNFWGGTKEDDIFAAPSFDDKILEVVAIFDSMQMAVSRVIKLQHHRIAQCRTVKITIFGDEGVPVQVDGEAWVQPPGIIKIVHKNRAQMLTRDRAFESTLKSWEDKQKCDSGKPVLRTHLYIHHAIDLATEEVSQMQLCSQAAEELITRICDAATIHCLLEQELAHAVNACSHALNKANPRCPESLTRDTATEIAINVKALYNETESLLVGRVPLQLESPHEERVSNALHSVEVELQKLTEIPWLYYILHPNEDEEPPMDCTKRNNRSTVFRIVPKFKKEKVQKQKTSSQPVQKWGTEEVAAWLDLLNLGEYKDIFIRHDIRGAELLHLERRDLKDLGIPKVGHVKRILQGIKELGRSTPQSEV
Sequence of 5'-AMP-activated protein kinase catalytic subunit alpha-1 (Homo sapiens) (Q13131 whole entry, looked up, the tested form may be a part, canonical isoform): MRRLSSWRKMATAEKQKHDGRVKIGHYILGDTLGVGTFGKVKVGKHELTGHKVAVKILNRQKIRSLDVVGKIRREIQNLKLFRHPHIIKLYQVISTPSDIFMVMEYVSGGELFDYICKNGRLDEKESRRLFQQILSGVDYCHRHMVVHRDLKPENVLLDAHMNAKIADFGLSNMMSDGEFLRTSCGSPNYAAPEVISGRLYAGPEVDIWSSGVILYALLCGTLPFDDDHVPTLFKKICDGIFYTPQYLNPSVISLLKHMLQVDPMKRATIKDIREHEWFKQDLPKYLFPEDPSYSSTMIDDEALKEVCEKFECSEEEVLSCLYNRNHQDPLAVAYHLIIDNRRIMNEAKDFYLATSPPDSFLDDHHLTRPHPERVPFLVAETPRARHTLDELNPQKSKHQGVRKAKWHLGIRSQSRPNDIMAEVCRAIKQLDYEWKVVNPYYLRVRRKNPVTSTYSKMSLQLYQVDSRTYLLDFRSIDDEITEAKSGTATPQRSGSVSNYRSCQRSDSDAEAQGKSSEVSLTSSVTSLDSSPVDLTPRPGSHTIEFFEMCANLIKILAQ
Sequence of Casein kinase I isoform epsilon (Homo sapiens) (P49674 whole entry, looked up, canonical isoform): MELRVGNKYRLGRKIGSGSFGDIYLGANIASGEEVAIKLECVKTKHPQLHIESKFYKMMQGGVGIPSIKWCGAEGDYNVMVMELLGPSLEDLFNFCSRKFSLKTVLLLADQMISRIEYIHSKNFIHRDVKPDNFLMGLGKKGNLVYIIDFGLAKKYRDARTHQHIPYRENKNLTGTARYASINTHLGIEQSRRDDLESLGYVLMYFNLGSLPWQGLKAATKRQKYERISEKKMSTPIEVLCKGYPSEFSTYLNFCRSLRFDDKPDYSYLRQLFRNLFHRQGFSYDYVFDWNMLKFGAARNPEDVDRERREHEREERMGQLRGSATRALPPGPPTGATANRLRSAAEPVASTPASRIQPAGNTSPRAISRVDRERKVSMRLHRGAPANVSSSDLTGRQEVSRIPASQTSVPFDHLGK
Sequence of Calcium/calmodulin-dependent protein kinase type II subunit alpha (Homo sapiens) (Q9UQM7 whole entry, the tested form may be a part): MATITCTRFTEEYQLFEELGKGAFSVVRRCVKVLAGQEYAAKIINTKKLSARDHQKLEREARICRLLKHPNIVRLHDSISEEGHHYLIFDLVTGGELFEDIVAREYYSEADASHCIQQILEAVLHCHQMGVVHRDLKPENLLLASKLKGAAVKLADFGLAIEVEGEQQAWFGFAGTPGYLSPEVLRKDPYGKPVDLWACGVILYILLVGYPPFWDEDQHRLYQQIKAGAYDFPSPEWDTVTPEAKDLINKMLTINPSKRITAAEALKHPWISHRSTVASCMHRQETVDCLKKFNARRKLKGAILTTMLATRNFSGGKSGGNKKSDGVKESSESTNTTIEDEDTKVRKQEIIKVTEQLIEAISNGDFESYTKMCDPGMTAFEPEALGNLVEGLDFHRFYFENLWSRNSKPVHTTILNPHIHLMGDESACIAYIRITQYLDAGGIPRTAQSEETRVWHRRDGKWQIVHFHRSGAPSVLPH
Sequence of Beta-adrenergic receptor kinase 1 (Homo sapiens) (P25098 whole entry, the tested form may be a part): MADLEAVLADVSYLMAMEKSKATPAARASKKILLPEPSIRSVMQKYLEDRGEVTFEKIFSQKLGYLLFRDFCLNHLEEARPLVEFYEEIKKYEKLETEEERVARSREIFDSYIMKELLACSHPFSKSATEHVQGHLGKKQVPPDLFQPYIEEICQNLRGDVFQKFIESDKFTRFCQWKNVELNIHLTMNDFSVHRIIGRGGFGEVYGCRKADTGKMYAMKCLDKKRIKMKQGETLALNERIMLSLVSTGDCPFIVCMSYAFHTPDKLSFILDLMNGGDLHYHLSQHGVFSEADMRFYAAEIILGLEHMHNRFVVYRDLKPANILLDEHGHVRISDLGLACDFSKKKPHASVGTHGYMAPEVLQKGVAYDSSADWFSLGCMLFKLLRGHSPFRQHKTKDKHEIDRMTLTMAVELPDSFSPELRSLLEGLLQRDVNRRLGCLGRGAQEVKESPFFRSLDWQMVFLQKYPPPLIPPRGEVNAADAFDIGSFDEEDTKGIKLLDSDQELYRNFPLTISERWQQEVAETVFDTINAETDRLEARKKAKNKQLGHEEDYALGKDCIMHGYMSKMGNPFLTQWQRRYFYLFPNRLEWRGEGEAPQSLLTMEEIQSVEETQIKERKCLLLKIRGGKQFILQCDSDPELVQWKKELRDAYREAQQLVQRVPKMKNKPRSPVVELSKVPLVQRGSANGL

`CC(C)(O)CNc1ncc(-c2ccnc(Nc3ccnc(Cl)c3)n2)c(CC2CC2)n1` was tested, and the inhibition [1] was “inactive”, the inhibition [2] was “inactive” and the Activity [3] was 123%. For the same compound, the inhibition [4] was “inactive”, the inhibition [5] was “inactive” and the inhibition [6] was “inactive”. For the same compound, the Activity [7] was 96%, the inhibition [8] was “inactive” and the inhibition [9] was “inactive”. For the same compound, the inhibition [10] was “inactive”, the inhibition [11] was “inactive” and the Activity [12] was 83%. The inhibition [13] was “inactive”, the Activity [14] was 113% and the inhibition [15] was “inactive”. For the same compound, the inhibition [16] was “inactive”, the inhibition [17] was “inactive” and the inhibition [18] was “inactive”. The Activity [19] was 103%, the inhibition (Homo sapiens) was “inactive” and the inhibition [20] was “inactive”. The Activity [21] was 93%, the Activity [22] was 88% and the inhibition [23] was “inactive”. The inhibition [24] was “inactive” and the Activity [25] was 119%.
